Data set [1] in a line: In vitro stability of MRS2365 in mouse whole blood. The note with it: male, CD-1, EDTA-treated mouse whole blood. Format: in vitro ADME. Here is the method: Whole blood was obtained from male CD-1 mice and human volunteers at Seventh Wave Laboratories (Maryland Heights, MO). Plasma and blood samples were prepared using either EDTA (1 mM) or lithium heparin as anticoagulants.
Blood Stability Determination: MRS2365, enalapril and procaine were solubilized in phosphate-buffered saline, pH 7.4. […] Stability incubations were initiated with the addition of MRS2365 (1 μM final concentration) (FIGS. 5 and 6). Blood sample aliquots were obtained at 0, 1, 2.5, 7.5, 10 and 30 minutes and placed in microtainer tubes. For metabolite scouting analyses, MRS2365 was incubated in heparinized human whole blood at a concentration of 100 μM for 10 or 30 minutes (FIG. 10). In all studies, plasma was immediately prepared by centrifugation at 4° C., placed in microtainer tubes, frozen on dry ice and stored at −80° C. until analysis.
The following table outlines the LC and MS/MS conditions employed (Table 11).
The calibration range for MRS2365 plasma and blood concentration standard curves was 5-5000 ng/mL. Quality control samples were utilized at concentrations of 32, 160, 800 and 4000 ng/mL.

Data set [2] is described as follows: LC-MS/MS metabolite scouting of MRS2365 in plasma and whole blood. Format: in vitro ADME. The note with it: EDTA-treated mouse and human whole blood. Here is the method:
Plasma Stability Determination: MRS2365, enalapril and procaine were solubilized in phosphate-buffered saline, pH 7.4. […] Stability incubations were initiated with the addition of MRS2365 (1 μM final concentration). Initial assessments of stability in EDTA-generated plasma utilized incubation timepoints of 0, 10, 30, 60, 120 and 240 minutes (FIGS. 3 and 4). Subsequent studies comparing EDTA- and heparin-generated plasma utilized incubation timepoints of 0, 1, 2.5, 5, 7.5, 10 and 30 minutes (FIG. 7). Additional plasma stability incubations comparing EDTA- and heparin-generated plasma were performed using timepoints of 0, 5, 10, 20, 30, 45, 60 and 90 seconds (FIG. 8). […]
Plasma and blood samples were also qualitatively analyzed for MRS2365 metabolites utilizing a LC-MS/MS-based “metabolite scouting” protocol. […] Blood and plasma samples were analyzed by both positive- and negative-ion LC/MS-MS for parent compound and metabolites as it was anticipated that the phosphorylated compounds would preferentially generate negative ions while the riboside MRS4322 would preferentially generate positive ions. In positive-ion mode, extracted ion chromatograms monitored masses in the range of 323.7-324.7 and 403.7-404.7 to scout for MRS4322 and MRS2347, respectively. Any ion peaks in these ranges were further analyzed to generate product ion spectra for these ion chromatogram peaks. […]

A short description of data set [3]: Brain binding determination by brain homogenate ultrafiltration, neonatal pig. The class given is in vitro ADME. The note with it: female, pH 7.4, 37° C., read-out: % Bound Mean (converted).
Method: Animals and Tissue Preparation. Plasma and brain samples from female neonatal pigs were obtained from the University of Pennsylvania and stored at −80° C. until use.
Brains were weighed and homogenized with 1:9 phosphate-buffered saline, pH 7.4 using an Omni tissue homogenizer.
Pooled homogenized brains were pre-warmed for 60 minutes in a humidified, 5% CO2 incubator maintained at 37° C. […] Spiked pooled brain homogenates were placed on a Nutator mixer in a humidified, 5% CO2 incubator at 37° C. for 60 minutes. After 60 minutes, three 800 ul aliquots of each sample were added to Centrifree centrifugal filters. The filters were subjected to centrifugation at 2900 rpm for 10 minutes at 37 C. Aliquots of residual brain homogenate and ultrafiltrate were collected for bioanalysis.
For each tissue matrix, standard curves were created and LLOQ/ULOQ concentrations determined.
A short description of data set [4]: Pharmacokinetics of MRS4322 following intraperitoneal administration to mice (plasma and brain concentrations, LC-MS/MS). Format: in vivo. The note with it: female, mouse, plasma; for Tmax: MRS4322 0.16 mg/kg ip; for half-life: ip, MRS4322 […] ip. How it is done: Animals: Female C576BL/6J mice weighing approximately 0.02 kg were used for this study, supplied by the University of Texas Health Sciences Center (San Antonio, TX). All studies were conducted under approved University of Texas Health Sciences Center IACUC protocols.
Drug Administration: MRS4322 was solubilized in DMSO and then diluted in saline to prepare dosing solution. Final dosing solution concentration of MRS4322 was 100 μM. A 100 μL volume of dosing solution was administered intraperitoneally to each mouse per 20 gram body weight; MRS4322 was administered intraperitoneally at 0.16 mg/kg or 0.5 μmol/kg. Three mice were administered MRS4322 for each sampling timepoint.
Tissue Sampling: Blood and brain samples were obtained at 0, 0.083, 0.25, 0.5, 1, 2 and 8 hours post-dose. At each timepoint, mice (3/timepoint) were euthanized in a […] chamber. Whole blood was obtained by cardiac puncture into Microtainer tubes containing heparin and immediately centrifuged for preparation of plasma; plasma was stored at −80° C. At each timepoint, whole brain samples were obtained by decapitation, rinsed in ice-cold phosphate-buffered saline and weighed. Brain samples were then immediately flash-frozen in liquid nitrogen and stored at −80° C.
The following table outlines the LC and MS/MS conditions employed:
The calibration range for the MRS4322 plasma concentration standard curve was 2.42-242 ng/mL. The calibration range for MRS4322 brain concentrations was 2.41-233 ng/mL.
For bioanalysis of brain concentrations of MRS4322, brain samples were homogenized in ice-cold phosphate-buffered saline in a 4× dilution. Aliquots of the resulting diluted brain homogenate were treated with acetonitrile and analyzed by LC-MS/MS. Because of the 4× homogenate dilution, the calibration range of the MRS4322 brain standard curve was translated to 9.64-932 ng/gm. In several samples, MRS4322 was detectable but fell below the brain LLOQ of 9.64 ng/gm but were above background; in these cases the final reported brain concentration was extrapolated based on MS peak heights.

Where two headings read alike, the source gives them in different places.

The values that follow come from patent US12239654B2, “Compounds and methods for treating neurological and cardiovascular conditions” (Astrocyte Pharmaceuticals, Inc., priority 2016, dated 2025).

Take `CSc1nc(N)c2ncn([C@H]3[C@H](O)[C@H](O)[C@]4(COP(=O)(O)OP(=O)(O)O)C[C@H]34)c2n1` [MRS2365]: the half-life (in general, how long it takes for the measured level to halve) at 1 μM in data set [1] was 47 min. Besides, the metabolites detected result in data set [2] is given as “No metabolites were detected”.

`CSc1nc(N)c2ncn([C@H]3[C@H](O)[C@H](O)[C@]4(CO)C[C@H]34)c2n1` [MRS4322]: the fraction unbound at 60 min, 1 uM in data set [3] is 0.253. Besides, the time of peak concentration (Tmax) (commonly the time from dosing to the highest level) in data set [4] (C57BL/6J, mean, read-out: Tmax Mean) amounted to 4.98 min; in data set [4] (C576BL/6J, animals A-C, read-out: Tmax), 4.98 min. The half-life was 18.6 min in data set [4] (C57BL/6J, mean, read-out: Half-life Mean (converted)) and 18.4 min in data set [4] (C576BL/6J, animals A-C, read-out: Half-life (converted)).
